Our source for the Ki and IC50 values is patent US8637511B2, “Aminopyrimidines useful as kinase inhibitors” (Vertex Pharmaceuticals Incorporated, priority 2005, dated 2014).

Experiment [1] concerns the target T1, FLT-3 (Homo sapiens, UniProt P36888).
T1 sequence (P36888 27-993): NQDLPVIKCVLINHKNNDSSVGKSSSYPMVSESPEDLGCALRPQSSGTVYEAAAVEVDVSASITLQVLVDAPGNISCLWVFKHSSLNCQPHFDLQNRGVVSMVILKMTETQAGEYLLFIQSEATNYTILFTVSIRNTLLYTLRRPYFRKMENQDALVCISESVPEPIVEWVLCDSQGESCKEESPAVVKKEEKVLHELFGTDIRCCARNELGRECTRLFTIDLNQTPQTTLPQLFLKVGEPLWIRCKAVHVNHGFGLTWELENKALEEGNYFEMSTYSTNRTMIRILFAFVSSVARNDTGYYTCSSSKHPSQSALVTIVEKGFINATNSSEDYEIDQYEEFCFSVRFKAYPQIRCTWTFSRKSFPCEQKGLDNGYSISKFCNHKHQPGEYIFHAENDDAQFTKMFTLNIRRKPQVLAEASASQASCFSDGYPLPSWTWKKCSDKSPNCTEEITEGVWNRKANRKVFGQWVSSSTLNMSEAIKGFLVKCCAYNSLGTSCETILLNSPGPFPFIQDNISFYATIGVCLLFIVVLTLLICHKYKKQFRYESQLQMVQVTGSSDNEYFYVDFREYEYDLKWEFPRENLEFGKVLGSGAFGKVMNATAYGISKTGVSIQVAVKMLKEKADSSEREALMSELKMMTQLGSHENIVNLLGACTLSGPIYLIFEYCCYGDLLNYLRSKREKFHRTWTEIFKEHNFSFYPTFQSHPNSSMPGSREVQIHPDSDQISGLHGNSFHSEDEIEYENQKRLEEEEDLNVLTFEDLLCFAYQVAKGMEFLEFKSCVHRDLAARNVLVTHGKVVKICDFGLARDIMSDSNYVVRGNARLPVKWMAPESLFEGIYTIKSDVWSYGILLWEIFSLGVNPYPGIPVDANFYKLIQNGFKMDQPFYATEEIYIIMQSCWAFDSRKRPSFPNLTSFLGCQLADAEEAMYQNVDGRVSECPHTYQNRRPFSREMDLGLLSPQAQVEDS
Briefly: FLT-3 inhibition assay, radiometric filter-binding. It counts as biochemical. As to the method: This assay monitors the 33P incorporation into a substrate poly(Glu, Tyr) 4:1 (pE4Y). […] Final substrate concentrations in the assay were 90 μM ATP and 0.5 mg/ml pE4Y (both from Sigma Chemicals, St. Louis, Mo.). […] Reactions were carried out at room temperature.
Two assay solutions were prepared. Solution 1 contains 100 mM HEPES (pH 7.5), 10 mM MgCl2, 25 mM NaCl, 1 mg/ml pE4Y and […] (containing 0.3 mCi of [γ-33^P]ATP for each reaction). Solution 2 contains 100 mM HEPES (pH 7.5), 10 mM MgCl2, 25 mM NaCl, 2 mM DTT, 0.02% BSA and 3 nM FLT-3. The assay was run on a 96 well plate by mixing 50 μl each of Solution 1 and […] of the compounds of the present invention. The reaction was initiated with Solution 2. […] All of the reaction volume was then transferred to a filter plate and washed with 5% TCA by a Harvester 9600 from TOMTEC (Hamden, Conn.). The amount of ^33P incorporation into pE4y was analyzed by a Packard Top Count Microplate Scintillation Counter (Meriden, Conn.). The data was fitted using Prism software to get an IC50 or Ki.

Experiment [2] deals with Colo205 cells. Briefly: Analysis of cell proliferation and viability. It counts as cell-based. As to conditions: Homo sapiens, COLO 205; Colo205 cells, incubated for 96 hours; read-out: IC50 value.
The target of experiment [3] is T2, human Itk kinase (Homo sapiens, UniProt Q08881).
T2 sequence (Q08881 1-620): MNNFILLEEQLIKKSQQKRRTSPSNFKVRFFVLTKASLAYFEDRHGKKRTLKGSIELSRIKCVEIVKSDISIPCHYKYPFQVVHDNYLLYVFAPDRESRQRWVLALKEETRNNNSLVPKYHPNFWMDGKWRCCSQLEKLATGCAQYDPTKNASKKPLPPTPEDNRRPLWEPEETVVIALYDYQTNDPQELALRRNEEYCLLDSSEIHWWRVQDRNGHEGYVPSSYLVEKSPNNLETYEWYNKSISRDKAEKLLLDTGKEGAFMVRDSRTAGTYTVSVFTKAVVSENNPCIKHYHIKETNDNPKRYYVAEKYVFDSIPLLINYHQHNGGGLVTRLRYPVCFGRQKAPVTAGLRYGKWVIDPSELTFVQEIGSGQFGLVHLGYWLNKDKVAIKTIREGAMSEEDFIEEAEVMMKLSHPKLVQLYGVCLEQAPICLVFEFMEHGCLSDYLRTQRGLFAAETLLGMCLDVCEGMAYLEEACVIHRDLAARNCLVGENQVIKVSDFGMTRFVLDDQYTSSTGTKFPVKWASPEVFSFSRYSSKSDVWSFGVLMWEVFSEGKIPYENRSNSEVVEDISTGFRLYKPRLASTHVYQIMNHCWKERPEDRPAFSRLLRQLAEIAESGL
Briefly: Itk inhibition assay: radioactivity-based assay. It counts as biochemical. As to conditions: Ki(app). As to the method: The compounds of the present invention were evaluated as inhibitors of human Itk kinase using a radioactivity-based assay. These compounds can also be evaluated using a spectrophotometric or alphascreen assay.
Assays were carried out in a mixture of 20 mM MOPS (pH 7.0), 10 mM MgCl2, 0.1% BSA and 1 mM DTT. Final substrate concentrations in the assay were 7.5 μM [γ-^33P]ATP (400 μCi ^33P ATP/μmol ATP, Amersham Pharmacia Biotech/Sigma Chemicals) and 3 μM peptide (SAM68 protein Δ332-443). Assays were carried out at 25° C. in the presence of 50 nM Itk. An assay stock buffer solution was prepared containing all of the reagents listed above, with the exception of ATP and the test compound of interest. 50 μL of the stock solution was placed in a 96 well plate followed by addition of 2 μL of DMSO stock containing serial dilutions of the test compound (typically starting from a final concentration of 50 μM with 2-fold serial dilutions) in duplicate (final DMSO concentration 2%). The plate was pre-incubated for 10 minutes at 25° C. and the reaction initiated by addition of 50 μL [γ-^33P]ATP (final concentration 7.5 μM).
The reaction was stopped after 10 minutes by the addition of 100 μL 0.2M phosphoric acid+0.01% TWEEN 20. A multiscreen phosphocellulose filter 96-well plate (Millipore, Cat no. MAPHNOB50) was pretreated with 100 μL 0.2M phosphoric acid+0.01% TWEEN 20 prior to the addition of 170 μL of the stopped assay mixture. The plate was washed with 4×200 μL 0.2M phosphoric acid+0.01% TWEEN 20. After drying, 30 μL Optiphase ‘SuperMix’ liquid scintillation cocktail (Perkin Elmer) was added to the well prior to scintillation counting (1450 Microbeta Liquid Scintillation Counter, Wallac).
Ki(app) data were calculated from non-linear regression analysis of the initial rate data using the Prism software package (GraphPad Prism version 3.0cx for Macintosh, GraphPad Software, San Diego Calif., USA).

Regarding `CCc1cc(Nc2cc(N3CCC3)nc(Sc3ccc(NC(=O)c4ccccc4Cl)cc3)n2)n[nH]1` [Compound 64], the Ki in experiment [1] was 50 to 150 nM; in experiment [3], at most 100 nM. In addition, in experiment [2], the IC50 (as a rule, the concentration that inhibits the measured activity by half) is 50 to 1000 nM.
